Like-named read-outs stand apart in the source and are kept apart here.
Legend:
5-LOX [1] = target: T1, 5-LOX (Homo sapiens, UniProt P09917); set-up: made in house; host or cells: E. coli Bl21 (DE3); conditions: supplementary csv; # published in ref Pein et al.4; read-out: IC50 (5-LOX enzyme); cited from earlier work
T1 sequence (P09917 1-674): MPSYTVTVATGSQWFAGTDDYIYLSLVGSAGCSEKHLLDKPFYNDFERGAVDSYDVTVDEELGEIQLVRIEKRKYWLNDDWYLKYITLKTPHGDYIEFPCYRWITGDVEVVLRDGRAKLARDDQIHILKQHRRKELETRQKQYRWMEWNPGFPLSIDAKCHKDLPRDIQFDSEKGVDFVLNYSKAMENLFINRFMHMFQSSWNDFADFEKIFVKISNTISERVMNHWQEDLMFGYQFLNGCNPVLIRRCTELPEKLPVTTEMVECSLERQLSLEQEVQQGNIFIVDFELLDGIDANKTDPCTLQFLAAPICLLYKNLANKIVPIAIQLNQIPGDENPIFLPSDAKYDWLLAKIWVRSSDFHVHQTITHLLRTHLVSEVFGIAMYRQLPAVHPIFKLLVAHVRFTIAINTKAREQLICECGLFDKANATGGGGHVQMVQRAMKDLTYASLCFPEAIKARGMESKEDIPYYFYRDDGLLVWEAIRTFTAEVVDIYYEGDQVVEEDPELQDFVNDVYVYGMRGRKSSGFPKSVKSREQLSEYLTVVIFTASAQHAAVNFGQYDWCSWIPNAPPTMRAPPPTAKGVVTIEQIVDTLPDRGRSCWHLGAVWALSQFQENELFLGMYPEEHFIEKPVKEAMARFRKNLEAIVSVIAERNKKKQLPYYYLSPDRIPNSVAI

5-LOX [2] = target: T1, 5-LOX; conditions: supplementary csv; # published in ref Pein et al.4; read-out: IC50 (5-LOX PMNL); cited from earlier work
5-LOX [3] = target: T1, 5-LOX; test: Cell-free 5-LOX activity (isolated human recombinant enzyme); conditions: read-out: 5-LOX enzyme residual activity at 1 µM (Table S1)
5-LOX [4] = target: T1, 5-LOX; test: 5-LOX product formation in activated PMNL; conditions: PMNL, read-out: 5-LOX PMNL residual activity at 3 µM (Table S1);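 note: freshly isolated human PMNL in PBS pH 7.4 plus glucose, preincubated 10 min at 37 °C with compound, 5-LOX products (all-trans LTB4 isomers, 5-HETE) quantified by RP-HPLC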
Description: These volunteers regularly donated blood (every 8–12 weeks) and were physically inspected by a clinician.
Erythrocytes were removed by dextran sedimentation and hypotonic lysis. PMNL were obtained from the cell pellet and platelets from the supernatant.
Freshly isolated PMNL (5 × 10^6) suspended in PBS pH 7.4 with 1 mg/mL glucose or freshly withdrawn human whole blood were preincubated with the test compounds for 10 min (or as indicated) at 37 °C. […] The reaction was stopped with an equal volume of methanol.

[5] = system: reconstructed human epidermis (RHE); test: Experimental atopic dermatitis in reconstructed human epidermis (RHE); type: cell-based; conditions: 1 μM, control
Description: Compound 27a was evaluated in an inflammatory model of RHE by Synelvia S.A.S. (Labège, France) according to the company’s protocol.[88] In brief, primary human keratinocytes were used to generate RHE on polycarbonate filters as described.[88] RHE was allowed to acclimate for 6 days (5% CO2, 37 °C) prior to incubation with 27a (5, 10, 25 μM), dexamethasone (1 μM), or vehicle (0.05% DMSO), and a proinflammatory cytokine cocktail for 4 days at 5% CO2 and 37 °C. The culture medium including compounds and cytokines was changed on days 6, 8, and 10. Each culture condition was repeated three times. Acute cytotoxicity of 27a was excluded at the concentrations studied within 24 h by measuring the mitochondrial dehydrogenase activity (MTT assay).
Morphological changes (i.e., spongiosis and the formation of keratohyalin granules) were evaluated for sections of paraffin-embedded RHEs after hematoxylin-eosin staining.[89] The permeability of the skin barrier was estimated from the transepidermal water loss at the RHE surface.[90] The surface pH was determined with a pH electrode as reported.[89] The permeability of the stratum corneum was addressed by applying Lucifer yellow onto the RHE surface and inspecting the penetration by fluorescence microscopy.[88] TSLP and IL-8 levels were analyzed by ELISA (according to the specifications of Synelvia S.A.S.) in the culture medium on day 2 and day 4 after addition of cytokines, respectively.

[6] = Radical scavenging activity (DPPH); conditions: 25 μM, positive control
Description: Compound 27a was incubated with 2,2-diphenyl-1-picrylhydrazyl (DPPH, Sigma-Aldrich; 50 mM) in ethanol for 30 min, and the absorbance was measured at 520 nm using a Multiskan Spectrum Microplate Reader (Thermo Fisher Scientific).[72] The positive control ascorbic acid (Sigma-Aldrich; 25 μM) scavenged DPPH radicals by 36 ± 11%.

[7] = system: zymosan-induced murine peritonitis; test: Zymosan-induced peritonitis in mice; type: in vivo; conditions: 3 mg/kg p.o., 30 min post zymosan
Description: Male CD-1 mice (33–39 g, 6–8 weeks, Charles River Laboratories; Calco, Italy) and female BALB/c mice (20 g, 8 weeks, Charles River Laboratories) were fed with standard rodent chow and water and acclimated for 4 days at a 12 h light and 12 h dark schedule in a constant air-conditioned environment (21 ± 2 °C). Mice were randomly assigned to groups, and experiments were carried out during the light phase.
Zymosan (2 mg/mL in saline, i.p., 0.5 mL, Sigma-Aldrich) was injected at 30 min (i.p.) or 60 min (p.o.) post compound administration. Mice were sacrificed by inhalation of CO2 after another 30 min to determine LTC4 levels, lipid mediator profiles, metabolites, and vascular permeability and after 4 h to analyze LTB4 levels and cell infiltration.[72] Plasma and peritoneal exudates were collected, and cells were counted in exudates after trypan blue staining. Vascular permeability was measured by injection of Evans blue dye (40 mg/kg in saline, 0.3 mL, Sigma-Aldrich) into the tail vain directly before peritonitis induction.[72] The exudate was centrifuged (3000g, 5 min), and the absorbance was measured at 610 nm (DU730 spectrophotometer, Beckman Coulter, Krefeld, Germany). Levels of LTB4 and cysteinyl-LTs (dominated by LTC4) were quantified in the exudate by ELISA (Enzo Life Sciences, Lörrach, Germany) according to the manufacturer’s instructions. Compound 27a, its metabolites, and lipid mediators were extracted and analyzed by UPLC-MS/MS.

Structure (SMILES): Cc1cc(O)c(C)c2c1O[C@](C)(CCC[C@H](C)CCC[C@H](C)CCCC(C)C)CC2 [Compound 1b]
- IC50 (5-LOX [1]): 0.75 ± 0.15 µM
- IC50 (5-LOX [2]): > 3 µM
- remaining activity at 1 µM (5-LOX [3]): 32.8 ± 9%
- remaining activity at 3 µM (5-LOX [4]): 79.6 ± 6.1%

Structure (SMILES): Cc1c(O)cc2c(c1C)O[C@](C)(CCC[C@H](C)CCC[C@H](C)CCCC(C)C)CC2 [Compound 1c]
- IC50 (5-LOX [1]): 0.91 ± 0.15 µM
- IC50 (5-LOX [2]): > 3 µM
- remaining activity at 1 µM (5-LOX [3]): 47 ± 4.5%
- remaining activity at 3 µM (5-LOX [4]): 78.5 ± 13.6%

Structure (SMILES): CC(C)=CCC/C(C)=C/CC/C(C)=C/CC[C@]1(C)CCc2c(C)c(O)cc(C)c2O1 [Compound 6b]
- IC50 (5-LOX [1]): 0.19 ± 0.03 µM
- IC50 (5-LOX [2]): 2.11 ± 0.36 µM
- remaining activity at 1 µM (5-LOX [3]): 6.4 ± 3.2%
- remaining activity at 3 µM (5-LOX [4]): 41.4 ± 8%

Structure (SMILES): CC(C)=CCC/C(C)=C/CC/C(C)=C/CC[C@]1(C)CCc2cc(O)c(C)c(C)c2O1 [Compound 6c]
- IC50 (5-LOX [1]): 0.2 ± 0.06 µM
- IC50 (5-LOX [2]): > 3 µM
- remaining activity at 1 µM (5-LOX [3]): 6.4 ± 3.2%
- remaining activity at 3 µM (5-LOX [4]): 73.5 ± 1.2%

Structure (SMILES): CC(C)=CCC/C(C)=C/CC/C(C)=C/CC[C@]1(C)CCc2cc(O)cc(C)c2O1 [Compound 6d, δ-tocotrienol]
- IC50 (5-LOX [1]): 0.17 ± 0.1 µM
- IC50 (5-LOX [2]): > 3 µM
- remaining activity at 1 µM (5-LOX [3]): 6.7 ± 3.1%
- remaining activity at 3 µM (5-LOX [4]): 74.9 ± 8%

Structure (SMILES): Cc1c(C)c2c(c(C)c1O)CC[C@@](C)(CCCC(C)CCCC(C)CCCC(C)CO)O2 (stereo partly drawn) [Compound 9a, α-T-13′-CH2OH]
- IC50 (5-LOX [1]): 0.35 ± 0.04 µM
- IC50 (5-LOX [2]): 0.19 ± 0.05 µM
- remaining activity at 1 µM (5-LOX [3]): 1.5 ± 0.4%
- remaining activity at 3 µM (5-LOX [4]): 21.6 ± 2.5%

Structure (SMILES): Cc1cc(O)cc2c1O[C@](C)(CCCC(C)CCCC(C)CCCC(C)CO)CC2 (stereo partly drawn) [Compound 9b]
- IC50 (5-LOX [1]): 0.12 ± 0.04 µM
- IC50 (5-LOX [2]): 0.54 ± 0.18 µM
- remaining activity at 1 µM (5-LOX [3]): 2.1 ± 0.3%
- remaining activity at 3 µM (5-LOX [4]): 22.6 ± 2.4%

Structure (SMILES): C/C(=C\CC/C(C)=C/CC/C(C)=C/CC[C@]1(C)CCc2c(C)c(O)c(C)c(C)c2O1)CO [Compound 10a]
- IC50 (5-LOX [1]): 0.11 ± 0.01 µM
- IC50 (5-LOX [2]): 0.27 ± 0.1 µM
- remaining activity at 1 µM (5-LOX [3]): 0.2 ± 0.1%
- remaining activity at 3 µM (5-LOX [4]): 13.2 ± 2%

Structure (SMILES): C/C(=C\CC/C(C)=C/CC/C(C)=C/CC[C@]1(C)CCc2c(C)c(O)cc(C)c2O1)CO [Compound 10b]
- IC50 (5-LOX [1]): 0.09 ± 0.03 µM
- IC50 (5-LOX [2]): 0.38 ± 0.09 µM
- remaining activity at 1 µM (5-LOX [3]): 0.2 ± 0.1%
- remaining activity at 3 µM (5-LOX [4]): 7.7 ± 1.3%

Structure (SMILES): C/C(=C\CC/C(C)=C/CC/C(C)=C/CC[C@]1(C)CCc2cc(O)cc(C)c2O1)CO [Compound 10c]
- IC50 (5-LOX [1]): 0.15 ± 0.05 µM
- IC50 (5-LOX [2]): 1.26 ± 0.33 µM
- remaining activity at 1 µM (5-LOX [3]): 2.7 ± 1.5%
- remaining activity at 3 µM (5-LOX [4]): 8.8 ± 1.9%

Structure (SMILES): C/C(=C/CC/C(C)=C/CC/C(C)=C/CC[C@]1(C)CCc2cc(O)c(C)c(C)c2O1)CO [Compound 10d]
- IC50 (5-LOX [1]): 0.12 ± 0.03 µM
- IC50 (5-LOX [2]): 0.14 ± 0.02 µM
- remaining activity at 1 µM (5-LOX [3]): 0%
- remaining activity at 3 µM (5-LOX [4]): 1.1 ± 1.1%

Structure (SMILES): C/C(=C/CC/C(C)=C/CC/C(C)=C/CC[C@]1(C)CCc2cc(O)cc(C)c2O1)CO [Compound 10e, δ-(Z)-deoxyamplexichromanol]
- IC50 (5-LOX [1]): 0.14 ± 0.03 µM
- IC50 (5-LOX [2]): 0.22 ± 0.04 µM
- remaining activity at 1 µM (5-LOX [3]): 0.3 ± 0.2%
- remaining activity at 3 µM (5-LOX [4]): 2 ± 0.2%

Structure (SMILES): C[C@@H]1C[C@H]2[C@@H]3CCC4=CC(=O)C=C[C@]4(C)[C@@]3(F)[C@@H](O)C[C@]2(C)[C@@]1(O)C(=O)CO [Dexamethasone, reference compound]
- Cytokine-induced responses in RHE [5]: suppressed these cytokine-induced responses

Structure (SMILES): O=C1O[C@H]([C@@H](O)CO)C(O)=C1O [ascorbic acid, reference compound]
- Scavenging of DPPH radicals [6]: 36 ± 11%

Structure (SMILES): CC(c1cc2ccccc2s1)N(O)C(N)=O (stereo not drawn) [zileuton, reference compound]
- Cysteinyl-LTs in the exudate [7]: did not evoke a stronger effect

Reference: article PMC8365602 (Journal of Medicinal Chemistry, 2021)
